Tests used:
[1] = biological target: Human recombinant PRMT5 in complex with human recombinant MEP50 (Homo sapiens (Human), UniProt O14744); assay: PRMT5/MEP50 AlphaLISA enzyme inhibitory assay; type: biochemical; details: PRMT5/MEP50 25 nM, SAM 10 μM, Biotin-H4 peptide 30 nM
From the text: Human recombinant PRMT5 in complex with human recombinant MEP50, co-expressed in an insect cell/baculovirus expression system was purchased from Reaction Biology (Malvern, Pa.). […] Anti-H4R3-Me AlphaLISA acceptor beads and Streptavidin labeled AlphaLISA donor beads were obtained from PerkinElmer (Waltham, Mass.). S-adenosylmethionine (SAM), Tween20, dimethylsulfoxide (DMSO), and Tris buffer were obtained from Sigma at the highest level of purity available.
General Procedure for PRMT5/MEP50 AlphaLISA Enzyme Inhibitory Assays: Assays were performed in the buffer consisting of 50 mM Tris, pH 8.5, 5 mM MgCl2, 50 mM NaCl with 0.01% Tween20 and 1 mM DTT added right before the assay. 2.5 μL of compound solution in the assay buffer with 4% DMSO and 5 μL of PRMT5/MRP50 complex/SAM mixture solution in the assay buffer which was pre-incubated for 30 minutes were added into a white low volume 384 well microtiter plate. This mixture solution was incubated for 15 minutes with gentle shaking at room temperature. Methyl transfer reaction was initiated by adding 2.5 μL of Biotin-H4 (1-21) peptide substrate solution in the assay buffer. Final concentrations of PRMT5/MEP50, SAM, Biotin-H4 peptide substrate, and DMSO were 25 nM, 10 μM, 30 nM, and 1%, respectively. The reaction was allowed to perform for 120 minutes in dark with gentle shaking at room temperature after which 5 μL of Anti-H4R3-Me AlphaLISA acceptor beads in detection buffer from the manufacturer was added into the reaction mixture followed by incubation for 60 minutes. 10 μL of Streptavidin labeled AlphaLISA donor beads in detection buffer was added into the mixture followed by 30 minute incubation. Final acceptor and donor beads concentrations were 10 μg/mL. Plates were read on an Envision multimode plate reader from PerkinElmer (Waltham Mass., USA) with an excitation wavelength of 680 nm and emission wavelength of 615 nm. IC50 values of inhibitors were obtained by fitting the fluorescence intensity vs inhibitor concentrations in a sigmoidal dose-response curve (variable slopes, four parameters) using Prism 7 (La Jolla, Calif.).

[2] = test system: Mantle Cell Lymphoma Z-138 cell; assay: Cell proliferation inhibition, Z-138 (CCK8); type: cell-based; details: Z-138, incubated 4 days
From the text: (§1) Materials and Cell Lines: Z-138, U251, and MIA PaCa2 cells were purchased from ATCC (American Type Culture Collection, Manassas, Va.) and Chinese Academy of Science (Shanghai, China). Iscove's Modified Dulbecco's Medium (IMDM), Dulbecco's Modified Eagle Medium (DMEM), penicillin-streptomycin, heat inactivated fetal bovine serum (FBS), and horse serum was purchased from ThermoFisher, Waltham, Mass., USA. Corning 96- and 384-well cell culture plates were purchased from ThermoFisher, Waltham, Mass., USA. Cell-Titer Glo® was purchased from Promega Corporation, Madison, Wis., USA.
In order to evaluate the inhibitory ability of compounds synthesized on the proliferation of the Mantle Cell Lymphoma Z-138 cell, exponentially growing cells were seeded in the media of IMDM with 10% horse serum and 1% penicillin-streptomycin at a concentration of 30000 cells/ml in a 96-well plate with 100 ul per well and incubated overnight at 37° C., 5% CO2 incubator. Compounds were prepared as 10-point, 3-fold serial dilutions in DMSO, beginning at 6 mM. 1 μl of DMSO solutions from the compound stock plates were added to 99 ul of cell culture media (final top concentration of compound in the assay was 30 uM and the final concentration of DMSO was 0.5%). 100 μL of compound solutions in media were added to each well of Z-138 cell plates. After adding compound solutions, assay plates were incubated for 4 days at 37° C., 5% CO2. Cell viability was measured using the Cell Counting Kit-8 (CCK8) obtained from the Beyotime Biotehnology, Shanghai, China. 20 ul of CCK8 reagent was added to each well of the Z-138 assay plate which was incubated at 37° C. for 2 hours. O.D. at 450 nm was read with the FlexStation 3 microplate reader (Molecular Devices, Sunnyvale, Calif. 94089 USA). The concentrations of compounds inhibiting cell viability by 50% (IC50 values) were determined using a sigmoidal dose-response model (variable slopes, four parameters) in Prism 7 (La Jolla, Calif.).

[3] = test system: Pancreatic Carcinoma MIA PaCa-2 cell; assay: Cell proliferation inhibition, MIA PaCa-2 (CellTiter-Glo); type: cell-based; details: Homo sapiens, MIA PaCa-2, incubated for 12 days (read after 8 or 12 days), read-out: IC50 (μM) MIA PaCa2
From the text: as §1
In order to evaluate the inhibitory ability of compounds synthesized on the proliferation of the Pancreatic Carcinoma MIA PaCa-2 cell, exponentially growing cells were seeded in the culture media of DMEM with 10% FBS, 2.5% horse serum, 1 mM of Sodium Pyruvate and 1% penicillin-streptomycin at a concentration of 2500 cells/ml in a 384-well plate with 20 ul per well and incubated overnight at 37° C., 5% CO2 incubator. Compounds were prepared as 10-point, 3-fold serial dilutions in DMSO, beginning at 6 mM. 1 μl of DMSO solutions from the compound stock plates were added to 99 ul of cell media (final top concentration of compound in the assay was 30 uM and the final concentration of DMSO was 0.5%). 20 μL of compound solutions in media were added to each well of MIA PaCa-2 cell plates. After adding compound solutions, assay plates were incubated for 12 days at 37° C., 5% CO2. During this incubation period, cell media was changed every 4 days. After removing old media from cell plates, 40 ul of media with testing compounds dissolved, which were prepared by adding 1 ul of compound DMSO serial solutions to 199 ul of cell media, were added to the assay plates with the same layout as they were initially prepared. After 8 or 12 days, cell viability was measured using the CellTiter-Glo assay kit from Promega (Madison, Wis., USA) by quantitating the ATP present in the cell cultures. 20 μL of CellTiter-Glo reagent was added to each well of the cell plates. Luminescence was read after 10 minute of incubation with the Envision multiple plate reader from PerkinElmer (Waltham, Mass., USA). The concentrations of compounds inhibiting cell viability by 50% (IC50 values) were determined using a sigmoidal dose-response model (variable slopes, four parameters) in Prism 7 (La Jolla, Calif., USA).

[4] = test system: Glioblastoma U-251 cell; assay: Cell proliferation inhibition, U-251 (CellTiter-Glo); type: cell-based; details: Homo sapiens, U-251, incubated for 12 days (read after 8 or 12 days)
From the text: as §1
In order to evaluate the inhibitory ability of compounds synthesized on the proliferation of the Glioblastoma U-251 cell, exponentially growing cells were seeded in the cell culture media of DMEM with 10% FBS and 1% penicillin-streptomycin at a concentration of 10000 cells/ml in a 384-well plate with 20 ul per well and incubated overnight at 37° C., 5% CO2 incubator. Compounds were prepared as 10-point, 3-fold serial dilutions in DMSO, beginning at 6 mM. 1 μl of DMSO solutions from the compound stock plates were added to 99 ul of cell culture media (final top concentration of compound in the assay was 30 uM and the final concentration of DMSO was 0.5%). 20 μL of compound solutions in media were added to each well of U-251 cell plates. After adding compound solutions, assay plates were incubated for 12 days at 37° C., 5% CO2. During this incubation period, cell culture media with freshly dissolved testing compounds was changed every 4 days. After removing old media from cell plates, 40 ul of media with testing compounds dissolved, which were prepared by adding 1 ul of compound DMSO serial solutions to 199 ul of cell media, were added to the assay plates with the same layout as they were initially prepared. After 8 or 12 days, cell viability was measured using the CellTiter-Glo assay kit from Promega (Madison, Wis., USA) by quantitating the ATP present in the cell cultures. 20 μL of CellTiter-Glo reagent was added to each well of the cell plates. Luminescence was read after 10 minute of incubation with the Envision multiple plate reader from PerkinElmer (Waltham, Mass., USA). The concentrations of compounds inhibiting cell viability by 50% (IC50 values) were determined using a sigmoidal dose-response model (variable slopes, four parameters) in Prism 7 (La Jolla, Calif., USA).

Chain of Human recombinant PRMT5 in complex with human recombinant MEP50 (O14744 whole entry): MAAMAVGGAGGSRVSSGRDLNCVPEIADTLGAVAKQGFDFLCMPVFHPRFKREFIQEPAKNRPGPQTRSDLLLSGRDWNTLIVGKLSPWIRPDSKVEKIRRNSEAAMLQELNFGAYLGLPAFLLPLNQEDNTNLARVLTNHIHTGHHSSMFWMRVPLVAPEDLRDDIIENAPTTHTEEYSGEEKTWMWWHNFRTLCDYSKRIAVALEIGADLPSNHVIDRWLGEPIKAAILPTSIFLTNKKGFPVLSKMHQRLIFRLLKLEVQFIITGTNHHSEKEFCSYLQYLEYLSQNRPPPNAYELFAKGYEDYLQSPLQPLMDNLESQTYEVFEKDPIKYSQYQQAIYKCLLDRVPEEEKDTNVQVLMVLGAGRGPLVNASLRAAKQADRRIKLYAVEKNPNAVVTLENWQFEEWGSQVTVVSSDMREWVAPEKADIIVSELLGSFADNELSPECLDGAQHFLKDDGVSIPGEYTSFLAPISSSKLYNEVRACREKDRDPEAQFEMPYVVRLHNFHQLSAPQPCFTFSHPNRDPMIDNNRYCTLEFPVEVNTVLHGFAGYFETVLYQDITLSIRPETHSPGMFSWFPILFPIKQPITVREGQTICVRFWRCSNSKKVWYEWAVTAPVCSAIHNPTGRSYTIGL
Chain of Human recombinant PRMT5 in complex with human recombinant MEP50 (Q9BQA1 whole entry partner): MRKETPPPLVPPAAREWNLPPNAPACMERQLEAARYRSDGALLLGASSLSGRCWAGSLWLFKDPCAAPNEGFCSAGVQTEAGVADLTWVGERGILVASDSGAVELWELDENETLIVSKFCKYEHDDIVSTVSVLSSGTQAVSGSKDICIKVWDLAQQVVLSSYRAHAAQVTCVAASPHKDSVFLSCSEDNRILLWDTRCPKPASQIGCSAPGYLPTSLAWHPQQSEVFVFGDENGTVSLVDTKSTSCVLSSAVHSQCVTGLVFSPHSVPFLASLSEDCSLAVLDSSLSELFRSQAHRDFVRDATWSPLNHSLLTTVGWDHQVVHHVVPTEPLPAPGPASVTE

Row | Compound | IC50 [1] [nM] | IC50 ([2]; Homo sapiens, Z-138, 96 h) [µM] | IC50 [3] [µM] | IC50 [4] [µM] | IC50 ([2]; listed as Ref 1 (EPZ-015666a)) [µM]
1 | CC(=O)N1CCC(Nc2cc(F)c3c(c2)C(=O)N(C[C@H](O)CN2CCc4ccccc4C2)CCO3)CC1 [Compound 2a, (R)-7-((1-acetylpiperidin-4-yl)amino)-4-(3-(3,4-dihydroisoquinolin-2(1H)-yl)-2-hydroxypropyl)-9-fluoro-3,4-dihydrobenzo[f][1,4]oxazepin-5(2H)-one] | 57 | 0.041 | 0.024 |  | 
2 | Cn1cc(Nc2ccc3c(c2)C(=O)N(C[C@H](O)CN2CCc4ccccc4C2)CC3)cn1 [Compound 12a, (R)-2-(3-(3,4-dihydroisoquinolin-2(1H)-yl)-2-hydroxypropyl)-7-((1-methyl-1H-pyrazol-4-yl)amino)-3,4-dihydroisoquinolin-1(2H)-one] | 12 | 0.13 | 0.66 | 0.48 | 
3 | O=C1c2cc(Nc3ccnnc3)ncc2OCCN1CC(O)CN1CCc2ccccc2C1 (centres unmarked) [Compound 48, 4-(3-(3,4-dihydroisoquinolin-2(1H)-yl)-2-hydroxypropyl)-7-(pyridazin-4-ylamino)-3,4-dihydropyrido[4,3-f][1,4]oxazepin-5(2H)-one] | 15.8 |  |  |  | 
4 | O=C1c2nc(Nc3ccnnc3)ccc2OCCN1CC(O)CN1CCc2ccccc2C1 (centres unmarked) [Compound 49, 4-(3-(3,4-dihydroisoquinolin-2(1H)-yl)-2-hydroxypropyl)-7-(pyridazin-4-ylamino)-3,4-dihydropyrido[2,3-f][1,4]oxazepin-5(2H)-one] | 690 |  |  |  | 
5 | O=C1c2cc(Nc3ccnnc3)c(F)cc2OCCN1CC(O)CN1CCc2ccccc2C1 (centres unmarked) [Compound 50, 4-(3-(3,4-dihydroisoquinolin-2(1H)-yl)-2-hydroxypropyl)-8-fluoro-7-(pyridazin-4-ylamino)-3,4-dihydrobenzo[f][1,4]oxazepin-5(2H)-one] | 7.7 |  |  |  | 
6 | O=C1c2cc(Nc3ccnnc3)cc(F)c2OCCN1CC(O)CN1CCc2ccccc2C1 (centres unmarked) [Compound 51, 4-(3-(3,4-dihydroisoquinolin-2(1H)-yl)-2-hydroxypropyl)-9-fluoro-7-(pyridazin-4-ylamino)-3,4-dihydrobenzo[f][1,4]oxazepin-5(2H)-one] | 6.5 |  |  |  | 
7 | CC(=O)N1CC2(CC(Nc3ccc4c(c3)C(=O)N(CC(O)CN3CCc5ccccc5C3)CCO4)C2)C1 (centres unmarked) [Compound 54, 7-((2-acetyl-2-azaspiro[3.3]heptan-6-yl)amino)-4-(3-(3,4-dihydroisoquinolin-2(1H)-yl)-2-hydroxypropyl)-3,4-dihydrobenzo[f][1,4]oxazepin-5(2H)-one] | 138 |  |  |  | 
8 | CC(=O)N1C2CCC1CC(Nc1ccc3c(c1)C(=O)N(CC(O)CN1CCc4ccccc4C1)CCO3)C2 (centres unmarked) [Compound 55, 7-((8-acetyl-8-azabicyclo[3.2.1]octan-3-yl)amino)-4-(3-(3,4-dihydroisoquinolin-2(1H)-yl)-2-hydroxypropyl)-3,4-dihydrobenzo[f][1,4]oxazepin-5(2H)-one] | 195 |  |  |  | 
9 | CC(=O)N1CC2C(C1)C2Nc1ccc2c(c1)C(=O)N(CC(O)CN1CCc3ccccc3C1)CCO2 (centres unmarked) [Compound 56, 7-((3-acetyl-3-azabicyclo[3.1.0]hexan-6-yl)amino)-4-(3-(3,4-dihydroisoquinolin-2(1H)-yl)-2-hydroxypropyl)-3,4-dihydrobenzo[f][1,4]oxazepin-5(2H)-one] | 1100 |  |  |  | 
10 | CC(=O)N1CCC(Nc2ccc3c(c2)C(=O)N(C[C@H](O)CN2CCc4ccccc4C2)C2CC3C2)CC1 [Compound 57a, (R)-8-((1-acetylpiperidin-4-yl)amino)-2-(3-(3,4-dihydroisoquinolin-2(1H)-yl)-2-hydroxypropyl)-2,3,4,5-tetrahydro-1H-3,5-methanobenzo[c]azepin-1-one] | 92.5 |  |  |  | 
11 | CC(=O)N1CCC(Nc2ccc3c(c2)C(=O)N(C[C@@H](O)CN2CCc4ccccc4C2)C2CC3C2)CC1 [Compound 57b, (S)-8-((1-acetylpiperidin-4-yl)amino)-2-(3-(3,4-dihydroisoquinolin-2(1H)-yl)-2-hydroxypropyl)-2,3,4,5-tetrahydro-1H-3,5-methanobenzo[c]azepin-1-one] | 209 |  |  |  | 
12 | O=C(NC[C@H](O)CN1CCc2ccccc2C1)c1cc(NC2COC2)ncn1 [Compound C1, reference compound] |  | 0.11 | 2 | 1.2 | 0.16
13 | O=C(NC[C@@H](O)CN1CCc2ccccc2C1)c1cc(NC2COC2)ncn1 [Compound C2, reference compound] |  | 9.1 | 12.1 | 28.3 | 

From patent publication US11591326B2, “Inhibitors of protein arginine methyltransferase 5 (PRMT5), pharmaceutical products thereof, and methods thereof” (PHARMABLOCK SCIENCES (NANJING), INC., priority 2018, dated 2023)
